Test results taken from article PMC7897990, “TriTOX: A novel Trichomonas vaginalis assay platform for high-throughput screening of compound libraries” (International Journal for Parasitology: Drugs and Drug …, 2021).

What was measured:
T. vaginalis [1] = assay: Medium-throughput (MTS) confirmatory dose-response growth assay, T. vaginalis; type: cell-based, Trichomonas vaginalis; settings: Trichomonas vaginalis; 96-well, 10,000 cells/mL in 50 μL, 48 h, mean ± SEM; >10 = no appreciable activity at highest dose
Procedure: (§1) For microtiter plate assays, trichomonads were grown in anaerobic conditions within GasPak EZ anaerobe pouches with fresh anaerobic sachets. Working reagent of the chromogen was phenol red (Sigma) in a 1% w/v working solution in phosphate buffered saline (PBS), which was filter sterilised. Chromogen absorbance was monitored at 570 nm on an absorbance microplate reader after plates were allowed to equilibrate in atmospheric conditions at room temperature for at least 5 min.
(§2) After absorbances were measured, data were processed as followed unless indicated otherwise in the text. […] Prism 8 (GraphPad) was used to plot dose-response curves and calculate IC50 values, using a least squares regression, log[inhibitor] vs normalised response (variable slope, four parameters) model. Where replicate plates were used, data for dose-response curves were plotted as the mean±SD of these replicates.
(§3) A selection of 17 compounds assayed in the high-throughput screen (HTS) for T. vaginalis which were available through BioAustralis were obtained for validation of inhibitory in/activity in our optimised medium-throughput format. For this, a 10-point serial dilution was used for drug-susceptibility testing to calculate IC50 values of ‘hit’ compounds. Mtz was used as a positive control. Each screen was performed with 3 technical replicates and a minimum of 2 biological replicates in both T. vaginalis and T. foetus using assay conditions of seeds of 10,000 cells/mL in 50 μL, with absorbance measured at 48 h. Dose response curves and IC50 were calculated for each compound as described above in Section 2.3.

T. foetus [2] = assay: Medium-throughput (MTS) confirmatory dose-response growth assay, T. foetus; type: cell-based, Tritrichomonas foetus; settings: Tritrichomonas foetus; 96-well, 10,000 cells/mL in 50 μL, 48 h, mean ± SEM; >10 = no appreciable activity at highest dose
Procedure: as §1, §2, §3

T. vaginalis [3] = assay: Pre-optimisation Mtz drug-sensitivity testing, 96-well, T. vaginalis; type: cell-based; settings: Trichomonas vaginalis
Procedure: as §1, §2
(§4) Trichomonad growth assays were assessed via Mtz drug-sensitivity testing in a medium throughput format (96-wells). Mtz was screened as two-fold, 10-point dilutions between 100 and 0.2 μM. For both T. foetus and T. vaginalis conditions were 5% (v/v) chromogen, well volumes of 100 μL and 200 μL and seeds of 10,000 and 20,000 cells/mL, and absorbance measured at 40 and 65 h. Mtz dose-response curves were plotted and Mtz IC50 calculated for both species, as well as the Z′ for each combination of conditions (volume, seed, timepoint) based on 4 technical replicates as described in Section 2.3.

T. foetus [4] = assay: Pre-optimisation Mtz drug-sensitivity testing, 96-well, T. foetus; type: cell-based; settings: Tritrichomonas foetus
Procedure: as §1, §2, §4

T. vaginalis [5] = assay: Miniaturised Mtz drug-sensitivity assay, 96-well plates; type: cell-based; settings: Trichomonas vaginalis
Procedure: as §1, §2
(§5) Miniaturised assay formats were assessed via Mtz drug-sensitivity for T. vaginalis in 96-well and 384-well plate formats using 5% (v/v) chromogen. For medium-throughput formats, seeds of 15,000 and 50,000 cells/mL were used in well volumes of 50 μL and 100 μL. For high-throughput formats, 25 μL well volumes were evaluated using seeds of 10,000, 20,000 and 40,000 cells/mL, while 50 μL well volumes used seeds of 5000, 10,000 and 20,000 cells/mL.

T. vaginalis [6] = assay: Miniaturised Mtz drug-sensitivity assay, 384-well plates; type: cell-based; settings: Trichomonas vaginalis
Procedure: as §1, §2, §5

- IC50 (T. vaginalis [1]): 1.4 ± 0.2 µM
- IC50 (T. foetus [2]): 1.2 ± 0.1 µM
- IC50 (T. vaginalis [3]; 40 h, Cα: 10 cells/µL, 100 µL, 40 h, read-out: Mtz IC50 T. vaginalis): 1630 nM
- IC50 (T. vaginalis [3]; 40 h, Cβ: 20 cells/µL, 100 µL, 40 h, read-out: Mtz IC50 T. vaginalis): 2640 nM
- IC50 (T. vaginalis [3]; 40 h, Cγ: 10 cells/µL, 200 µL, 40 h, read-out: Mtz IC50 T. vaginalis): 1630 nM
- IC50 (T. vaginalis [3]; 40 h, Cδ: 20 cells/µL, 200 µL, 40 h, read-out: Mtz IC50 T. vaginalis): 2160 nM
- IC50 (T. vaginalis [3]; 40 h, pre-optimisation, 40 h, read-out: Mtz IC50 T. vaginalis, across conditions): 2000 ± 200 nM
- IC50 (T. vaginalis [3]; 65 h, Cα: 10 cells/µL, 100 µL, 65 h, read-out: Mtz IC50 T. vaginalis): 3090 nM
- IC50 (T. vaginalis [3]; 65 h, Cβ: 20 cells/µL, 100 µL, 65 h, read-out: Mtz IC50 T. vaginalis): 3210 nM
- IC50 (T. vaginalis [3]; 65 h, Cγ: 10 cells/µL, 200 µL, 65 h, read-out: Mtz IC50 T. vaginalis): 2670 nM
- IC50 (T. vaginalis [3]; 65 h, Cδ: 20 cells/µL, 200 µL, 65 h, read-out: Mtz IC50 T. vaginalis): 3190 nM
- IC50 (T. vaginalis [3]; 65 h, pre-optimisation, 65 h, read-out: Mtz IC50 T. vaginalis, across conditions): 3000 ± 100 nM
- IC50 (T. foetus [4]; 40 h, Cα: 10 cells/µL, 100 µL, 40 h, read-out: Mtz IC50 T. foetus): 1170 nM
- IC50 (T. foetus [4]; 40 h, Cβ: 20 cells/µL, 100 µL, 40 h, read-out: Mtz IC50 T. foetus): 1310 nM
- IC50 (T. foetus [4]; 40 h, Cγ: 10 cells/µL, 200 µL, 40 h, read-out: Mtz IC50 T. foetus): 1190 nM
- IC50 (T. foetus [4]; 40 h, Cδ: 20 cells/µL, 200 µL, 40 h, read-out: Mtz IC50 T. foetus): 1230 nM
- IC50 (T. foetus [4]; 40 h, pre-optimisation, 40 h, read-out: Mtz IC50 T. foetus, across conditions): 1200 nM
- IC50 (T. foetus [4]; 65 h, Cα: 10 cells/µL, 100 µL, 65 h, read-out: Mtz IC50 T. foetus): 2170 nM
- IC50 (T. foetus [4]; 65 h, Cβ: 20 cells/µL, 100 µL, 65 h, read-out: Mtz IC50 T. foetus): 2700 nM
- IC50 (T. foetus [4]; 65 h, Cγ: 10 cells/µL, 200 µL, 65 h, read-out: Mtz IC50 T. foetus): 2070 nM
- IC50 (T. foetus [4]; 65 h, Cδ: 20 cells/µL, 200 µL, 65 h, read-out: Mtz IC50 T. foetus): 2380 nM
- IC50 (T. foetus [4]; 65 h, pre-optimisation, 65 h, read-out: Mtz IC50 T. foetus, across conditions): 2300 ± 100 nM
- IC50 (T. vaginalis [5]; 24 h, C2: 96-well, 50 cells/µL, 50 µL, 24 h): 2180 nM
- IC50 (T. vaginalis [5]; 24 h, C3: 96-well, 15 cells/µL, 100 µL, 24 h): 2910 nM
- IC50 (T. vaginalis [5]; 24 h, C4: 96-well, 50 cells/µL, 100 µL, 24 h): 2230 nM
- IC50 (T. vaginalis [5]; 36 h, C1: 96-well, 15 cells/µL, 50 µL, 36 h): 1160 nM
- IC50 (T. vaginalis [5]; 36 h, C2: 96-well, 50 cells/µL, 50 µL, 36 h): 3740 nM
- IC50 (T. vaginalis [5]; 36 h, C3: 96-well, 15 cells/µL, 100 µL, 36 h): 1340 nM
- IC50 (T. vaginalis [5]; 36 h, C4: 96-well, 50 cells/µL, 100 µL, 36 h): 3450 nM
- IC50 (T. vaginalis [5]; 48 h, C1: 96-well, 15 cells/µL, 50 µL, 48 h): 1580 nM
- IC50 (T. vaginalis [5]; 48 h, C2: 96-well, 50 cells/µL, 50 µL, 48 h): 3490 nM
- IC50 (T. vaginalis [5]; 48 h, C3: 96-well, 15 cells/µL, 100 µL, 48 h): 1960 nM
- IC50 (T. vaginalis [5]; 48 h, C4: 96-well, 50 cells/µL, 100 µL, 48 h): 5010 nM
- IC50 (T. vaginalis [6]; 24 h, C5: 384-well, 250 cells/well, 25 µL, 24 h): 1220 nM
- IC50 (T. vaginalis [6]; 24 h, C6: 384-well, 500 cells/well, 25 µL, 24 h): 2020 nM
- IC50 (T. vaginalis [6]; 24 h, C7: 384-well, 1000 cells/well, 25 µL, 24 h): 3210 nM
- IC50 (T. vaginalis [6]; 24 h, C8: 384-well, 250 cells/well, 50 µL, 24 h): 759 nM
- IC50 (T. vaginalis [6]; 24 h, C9: 384-well, 500 cells/well, 50 µL, 24 h): 1360 nM
- IC50 (T. vaginalis [6]; 24 h, C10: 384-well, 1000 cells/well, 50 µL, 24 h): 2330 nM
- IC50 (T. vaginalis [6]; 36 h, C5: 384-well, 250 cells/well, 25 µL, 36 h): 623 nM
- IC50 (T. vaginalis [6]; 36 h, C6: 384-well, 500 cells/well, 25 µL, 36 h): 888 nM
- IC50 (T. vaginalis [6]; 36 h, C7: 384-well, 1000 cells/well, 25 µL, 36 h): 1890 nM
- IC50 (T. vaginalis [6]; 36 h, C8: 384-well, 250 cells/well, 50 µL, 36 h): 672 nM
- IC50 (T. vaginalis [6]; 36 h, C9: 384-well, 500 cells/well, 50 µL, 36 h): 703 nM
- IC50 (T. vaginalis [6]; 36 h, C10: 384-well, 1000 cells/well, 50 µL, 36 h): 893 nM
- IC50 (T. vaginalis [6]; 48 h, C5: 384-well, 250 cells/well, 25 µL, 48 h): 1550 nM
- IC50 (T. vaginalis [6]; 48 h, C6: 384-well, 500 cells/well, 25 µL, 48 h): 2900 nM
- IC50 (T. vaginalis [6]; 48 h, C7: 384-well, 1000 cells/well, 25 µL, 48 h): 4310 nM
- IC50 (T. vaginalis [6]; 48 h, C8: 384-well, 250 cells/well, 50 µL, 48 h): 1340 nM
- IC50 (T. vaginalis [6]; 48 h, C9: 384-well, 500 cells/well, 50 µL, 48 h): 1500 nM
- IC50 (T. vaginalis [6]; 48 h, C10: 384-well, 1000 cells/well, 50 µL, 48 h): 3030 nM
SMILES: Cc1ncc([N+](=O)[O-])n1CCO [Metronidazole]
